Usually IC50 stands for the concentration that gives 50% inhibition. The EC50 is the midpoint of the concentration-response curve. As usually defined, the AC50 is the concentration giving half of the maximal activity seen. As a reminder, the CC50 is the concentration giving 50% cytotoxicity.

The structures appear in SMILES notation. “And” between values parts separate entries of the source, which are not always exact repeats. Identical values can stand only once. The source made the active and inactive calls.

Consider 2 molecules from ChEMBL document CHEMBL1201862, “PubChem BioAssay data set” (2004).

Assay [1] addresses T1, Mannose-6-phosphate isomerase (Homo sapiens, UniProt P34949).
T1 sequence (P34949 whole entry): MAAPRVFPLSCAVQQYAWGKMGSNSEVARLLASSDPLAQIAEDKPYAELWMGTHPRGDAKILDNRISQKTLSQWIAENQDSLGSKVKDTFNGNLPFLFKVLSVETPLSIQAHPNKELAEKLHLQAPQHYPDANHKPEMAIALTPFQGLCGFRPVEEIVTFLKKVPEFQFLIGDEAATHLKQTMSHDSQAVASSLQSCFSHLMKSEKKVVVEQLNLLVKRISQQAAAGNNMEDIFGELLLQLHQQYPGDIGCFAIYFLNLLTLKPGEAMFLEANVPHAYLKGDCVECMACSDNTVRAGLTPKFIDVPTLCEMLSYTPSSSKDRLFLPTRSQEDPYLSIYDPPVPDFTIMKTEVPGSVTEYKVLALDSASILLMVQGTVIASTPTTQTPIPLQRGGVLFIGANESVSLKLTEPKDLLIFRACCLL
Put plainly: MPI inhibition at elevated mannose 6-phosphate – biochemical, fluorescence intensity, high mannose 6-phosphate, primary screen (AID 1220).

Assay [2] concerns the target Intestinal-type alkaline phosphatase (Mus musculus, UniProt P24822). Put plainly: PubChem AID 488785. The format is functional.
For assay [3], the target named is T2, Sentrin-specific protease 7 (Homo sapiens, UniProt Q9BQF6).
T2 sequence (Q9BQF6 whole entry): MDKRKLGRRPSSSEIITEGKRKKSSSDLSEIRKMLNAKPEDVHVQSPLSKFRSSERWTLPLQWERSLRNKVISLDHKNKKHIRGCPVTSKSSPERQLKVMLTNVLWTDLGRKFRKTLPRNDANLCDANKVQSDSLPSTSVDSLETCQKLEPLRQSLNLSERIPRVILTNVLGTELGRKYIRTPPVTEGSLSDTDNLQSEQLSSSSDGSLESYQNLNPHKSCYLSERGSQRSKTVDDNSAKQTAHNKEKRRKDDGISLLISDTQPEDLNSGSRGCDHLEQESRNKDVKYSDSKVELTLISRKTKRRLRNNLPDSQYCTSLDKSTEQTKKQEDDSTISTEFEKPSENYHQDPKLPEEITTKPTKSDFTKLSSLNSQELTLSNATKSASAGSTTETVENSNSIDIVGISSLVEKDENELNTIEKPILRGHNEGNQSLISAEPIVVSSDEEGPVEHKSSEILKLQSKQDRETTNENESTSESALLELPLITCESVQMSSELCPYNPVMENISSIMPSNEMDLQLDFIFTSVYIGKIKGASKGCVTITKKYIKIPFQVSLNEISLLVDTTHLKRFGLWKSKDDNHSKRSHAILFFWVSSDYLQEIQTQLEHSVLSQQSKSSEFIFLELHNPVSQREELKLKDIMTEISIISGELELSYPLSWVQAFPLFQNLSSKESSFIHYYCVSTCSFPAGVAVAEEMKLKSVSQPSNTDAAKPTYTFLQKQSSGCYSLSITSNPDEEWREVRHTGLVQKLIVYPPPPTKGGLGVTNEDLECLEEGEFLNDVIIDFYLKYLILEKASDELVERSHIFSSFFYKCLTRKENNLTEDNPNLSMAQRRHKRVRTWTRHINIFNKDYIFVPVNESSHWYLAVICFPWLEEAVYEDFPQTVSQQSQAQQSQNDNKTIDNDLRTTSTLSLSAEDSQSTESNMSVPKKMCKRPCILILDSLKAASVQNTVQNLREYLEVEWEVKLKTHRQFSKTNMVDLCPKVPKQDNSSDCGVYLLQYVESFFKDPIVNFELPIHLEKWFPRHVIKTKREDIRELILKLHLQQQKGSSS
Put plainly: inhibition of human SENP7 cleavage activity – biochemical, luminescence, SAR follow-up (AID 504497). The assay is classed as functional.

For assay [4], the target named is T3, RNA-binding protein pos-1 (Caenorhabditis elegans, UniProt G5EF15).
T3 sequence (G5EF15 whole entry): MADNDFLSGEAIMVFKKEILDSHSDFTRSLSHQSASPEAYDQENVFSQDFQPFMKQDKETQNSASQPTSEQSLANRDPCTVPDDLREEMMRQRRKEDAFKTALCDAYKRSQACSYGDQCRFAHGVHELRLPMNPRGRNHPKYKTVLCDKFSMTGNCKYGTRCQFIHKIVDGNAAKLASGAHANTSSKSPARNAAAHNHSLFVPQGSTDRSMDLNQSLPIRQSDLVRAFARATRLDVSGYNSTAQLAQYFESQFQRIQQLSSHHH
Kind of assay: disruptors of C. elegans POS-1 RNA interaction – biochemical, fluorescence polarization, dose response (AID 1964).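 Note: purified POS-1 fused to maltose binding protein made in E. coli; potency of compounds blocking POS-1 binding to fluorescent RNA.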

In another assay the test system is BJ. Kind of assay: BJ-TERT-LT-ST fibroblast viability loss – cell-based, RAS-independent, luminescence, dose response (AID 1935).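 Note: BJ fibroblasts immortalized with TERT plus LT and ST oncogenes.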 The format is functional. The conditions noted are these: Homo sapiens.
Assay [5] in a line: DRD fibroblast viability loss – cell-based, non-viral oncogenic, luminescence, dose response (AID 1934). The format is functional. Conditions: Homo sapiens.
Assay [6] deals with T4, Replicative DNA helicase DnaB (Mycobacterium tuberculosis, UniProt P9WMR3).
T4 sequence (P9WMR3 whole entry): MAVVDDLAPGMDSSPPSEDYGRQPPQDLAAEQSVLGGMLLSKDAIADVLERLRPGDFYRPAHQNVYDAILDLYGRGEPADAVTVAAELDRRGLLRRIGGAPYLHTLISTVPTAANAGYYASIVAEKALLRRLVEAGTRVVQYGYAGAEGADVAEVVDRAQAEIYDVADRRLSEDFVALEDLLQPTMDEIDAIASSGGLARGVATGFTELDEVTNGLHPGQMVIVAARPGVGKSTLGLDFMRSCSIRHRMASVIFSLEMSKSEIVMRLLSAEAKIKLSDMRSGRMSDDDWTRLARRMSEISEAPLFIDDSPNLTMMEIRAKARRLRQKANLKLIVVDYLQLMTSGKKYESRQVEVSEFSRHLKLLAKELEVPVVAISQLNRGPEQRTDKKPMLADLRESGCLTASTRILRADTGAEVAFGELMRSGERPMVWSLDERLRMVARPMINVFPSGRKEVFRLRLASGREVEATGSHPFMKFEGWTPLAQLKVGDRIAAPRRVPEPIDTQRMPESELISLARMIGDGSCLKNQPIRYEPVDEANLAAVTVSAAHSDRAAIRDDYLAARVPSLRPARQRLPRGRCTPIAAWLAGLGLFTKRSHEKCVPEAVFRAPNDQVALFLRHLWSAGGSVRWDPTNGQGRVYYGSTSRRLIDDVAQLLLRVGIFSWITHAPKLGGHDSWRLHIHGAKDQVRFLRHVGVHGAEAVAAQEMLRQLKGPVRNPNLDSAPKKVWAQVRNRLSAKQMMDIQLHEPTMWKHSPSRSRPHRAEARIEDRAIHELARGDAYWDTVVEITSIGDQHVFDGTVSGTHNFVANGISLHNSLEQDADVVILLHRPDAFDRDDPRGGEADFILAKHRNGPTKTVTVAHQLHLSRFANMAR
Kind of assay: DnaB intein splicing inhibitors, dose response, biochemical, cell-free fluorescence (AID 449749). The assay is classed as functional.

A short description of assay [7]: viability loss in HeLa cells – cytotoxicity control for MgcRacGAP inhibitor project, dose response (AID 624300). The assay is classed as functional.
A short description of assay [8]: RKO cell viability reduction, dose response, CellTiter-Glo luminescence (AID 1117322). The format is functional. (ATP-based viability assays read luminescence as a measure of living cells.)
The nature of assay [9]: cytotoxicity toward HCT116 cells – cell-based, CellTiter-Glo luminescence, IC50, dose response (AID 1117332). The assay is classed as functional. The conditions noted are these: HCT-116.
Assay [10] is described as follows: cytotoxicity toward Colo320 cells – cell-based, CellTiter-Glo luminescence, IC50, dose response (AID 1117334). The assay is classed as functional. The conditions noted are these: COLO 320.
The nature of assay [11]: cytotoxicity toward HT-29 cells – cell-based, CellTiter-Glo luminescence, IC50, dose response (AID 1117330). The format is functional.

Sequence of Intestinal-type alkaline phosphatase (P24822 whole entry): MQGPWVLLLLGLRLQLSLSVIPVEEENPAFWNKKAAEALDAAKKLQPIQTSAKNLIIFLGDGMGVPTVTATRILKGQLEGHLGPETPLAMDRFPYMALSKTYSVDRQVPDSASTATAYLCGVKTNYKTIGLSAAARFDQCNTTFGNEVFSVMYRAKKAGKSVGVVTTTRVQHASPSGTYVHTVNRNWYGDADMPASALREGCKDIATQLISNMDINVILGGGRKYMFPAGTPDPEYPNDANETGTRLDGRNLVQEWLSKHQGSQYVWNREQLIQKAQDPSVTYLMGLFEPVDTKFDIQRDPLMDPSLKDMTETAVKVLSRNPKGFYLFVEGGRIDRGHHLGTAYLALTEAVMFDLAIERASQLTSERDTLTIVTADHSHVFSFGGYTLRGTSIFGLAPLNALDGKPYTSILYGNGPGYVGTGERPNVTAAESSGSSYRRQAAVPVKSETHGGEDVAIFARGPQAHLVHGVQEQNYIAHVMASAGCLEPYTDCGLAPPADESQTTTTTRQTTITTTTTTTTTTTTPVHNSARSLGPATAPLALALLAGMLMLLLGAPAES

Turning to `Oc1ccc(/C=N/Nc2cc(N3CCCC3)nc(N3CCCC3)n2)cc1O`, the half-inhibitory concentration (IC50) in assay [1] was > 50 µM (not active); in [2], 1.51 µM (active); in assay [3] it was 58.1 µM (active) and 39.7 µM (active).

As to `Cc1cc2nc3ccc(N(C)C)cc3[s+]c2cc1N` [TOLONIUM CHLORIDE], the EC50 is > 300 µM (not active) in assay [4], 9.19 µM (inconclusive) in the assay on BJ and 8.46 µM (inconclusive) in [5]. The half-maximal activity concentration (AC50) in [6] was 77.1 µM (active). The CC50 in [7] was 25 µM (active). The IC50 in [8] was 996 nM (active); in assay [9], 2.78 µM (active); in assay [10] it was 987 nM (active); in [11], 5.06 µM (inactive).
